Laboratory results from patent US9586958B2, “Prodrug derivatives of substituted triazolopyridines” (BAYER PHARMA AKTIENGESELLSCHAFT, priority 2013, dated 2017).
Structures can show the parent of a compound that is named as a salt.

What was measured:
[1] = In vitro stability in rat plasma (HPLC detection); assay type: in vitro ADME; conditions: 37° C.
Protocol: 1 mg of test compound is dissolved in 1.25 ml dimethylsulfoxide. Then 1.25 ml water are added. 0.5 ml of this sample solution are mixed with 0.5 ml heparinized and 37° C. warm plasma (wistar rat plasma or human plasma). A first sample (10 μl) is immediately taken for HPLC analysis. In the period up to 4 h after the start of incubation further 10 μl aliquots are taken after 30, 60, 90, 120 and 240 minutes and the amount of the test compound is determined.
Agilent 1100 with DAD (G1315A), binary pump (G1312A), autosampler (G1329A), column oven (G1316A), thermostat (G1330B); column: Kromasil 100 C18, 250 mm×4 mm, 5 μm; column temperature: 45° C.; eluent A: water+5 ml of perchloric acid/liter, eluent B: acetonitrile.

[2] = Stability in buffer at pH 7.4 (HPLC); assay type: physicochemical; conditions: buffer pH 7.4, 37° C.
Protocol: 0.3 mg of the test compound are solved in 0.1 ml dimethylsulfoxide and 0.4 ml acetonitrile. For complete dissolution the HPLC vial with the sample solution is sonified for about 20 seconds. Then 1.0 ml of the buffer solution is added, and the sample is again treated in the ultrasonic bath.
90 g of sodium chloride, 13.61 g of potassium dihydrogen phosphate and 83.35 g of 1 M sodium hydroxide solution are made up to 1 liter with Millipore water and then diluted 1:10.
10 μl portions of the sample solution are analysed by HPLC to determine the amount of the test compound over a period of 24 hours at 37° C. The peak areas in percentage are used for quantification.
Agilent 1100 with DAD (G1315B), binary pump (G1312A), autosampler (G1329A), column oven (G1316A), thermostat (G1330B); column: Kromasil 100 C18, 250 mm×4 mm, 5 μm; column temperature: 37° C.; eluent A: water+5 ml of perchloric acid/liter, eluent B: acetonitrile.
The ratio of the peak areas (F) at different time points in relation to the peak areas at the starting time are shown in Table 2 for representative examples: […]

| % Test Compound after 4 h [F(t = 24 h) × 100/F(t = 0 h)] ([1]; hydrochloride) [%] | % Test Compound after 24 h [F(t = 24 h) × 100/F(t = 0 h)] [2] [%] | % Test Compound after 4 h [F(t = 24 h) × 100/F(t = 0 h)] [1] [%] | SMILES |
| --- | --- | --- | --- |
| 22 | 0.0 | – | COc1cc(S(C)(=O)=O)ccc1N(C(=O)OC(C)OC(=O)[C@@H](N)C(C)(C)C)c1nc2ccc(-c3ccc(NC(=O)[C@H](C)c4ccc(F)cc4)cc3)cn2n1.Cl (single isomer, unassigned) [Example 3.3, (1R or 1S)-1-({[6-(4-{[(2R)-2-(4-fluorophenyl)propanoyl]amino}phenyl)[1,2,4]triazolo[1,5-α]pyridin-2-yl][2-methoxy-4-(methylsulfonyl)phenyl]carbamoyl}oxy)ethyl-3-methyl-L-valinate hydrochloride] |
| 29 | 0.0 | – | COc1cc(S(C)(=O)=O)ccc1N(C(=O)OC(C)OC(=O)[C@@H](N)C(C)(C)C)c1nc2ccc(-c3ccc(NC(=O)[C@H](C)c4ccc(F)cc4)cc3)cn2n1.Cl (single isomer, unassigned) [Example 3.4, (1S or 1R)-1-({[6-(4-{[(2R)-2-(4-fluorophenyl)propanoyl]amino}phenyl)[1,2,4]triazolo[1,5-α]pyridin-2-yl][2-methoxy-4-(methylsulfonyl)phenyl]carbamoyl}oxy)ethyl-3-methyl-L-valinate hydrochloride] |
| – | 48 | 44 | COc1cc(S(C)(=O)=O)ccc1N(C(=O)OC(OC(=O)[C@@H](N)C(C)C)C(C)C)c1nc2ccc(-c3ccc(NC(=O)[C@H](C)c4ccc(F)cc4)cc3)cn2n1 (single isomer, unassigned) [Example 5.2, (1R or S)-1-({[6-(4-{[(2R)-2-(4-fluorophenyl)propanoyl]amino}phenyl)[1,2,4]triazolo[1,5-α]pyridin-2-yl][2-methoxy-4-(methylsulfonyl)phenyl]carbamoyl}oxy)-2-methylpropyl-L-valinate hydrochloride] |
| – | 0.0 | 0.0 | COc1cc(S(C)(=O)=O)ccc1N(C(=O)OCOC(=O)[C@@H](N)C(C)C)c1nc2ccc(-c3ccc(NC(=O)[C@H](C)c4ccc(F)cc4)cc3)cn2n1 [Example 1.2, ({[6-(4-{[(2R)-2-(4-fluorophenyl)propanoyl]amino}phenyl)[1,2,4]triazolo[1,5-α]pyridin-2-yl][2-methoxy-4-(methylsulfonyl)phenyl]carbamoyl}oxy)methyl L-valinate hydrochloride] |
| – | 0.0 | 14 | CN[C@H](C(=O)OCOC(=O)N(c1nc2ccc(-c3ccc(NC(=O)[C@H](C)c4ccc(F)cc4)cc3)cn2n1)c1ccc(S(C)(=O)=O)cc1OC)C(C)C.Cl [Example 1.4, ({[6-(4-{[(2R)-2-(4-fluorophenyl)propanoyl]amino}phenyl)[1,2,4]triazolo[1,5-α]pyridin-2-yl][2-methoxy-4-(methylsulfonyl)phenyl]carbamoyl}oxy)methyl N-methyl-L-valinate hydrochloride] |
| – | 0.0 | 0.0 | COc1cc(S(C)(=O)=O)ccc1N(C(=O)OCOC(=O)[C@@H](N)C(C)(C)C)c1nc2ccc(-c3ccc(NC(=O)[C@H](C)c4ccc(F)cc4)cc3)cn2n1.Cl [Example 1.5, ({[6-(4-{[(2R)-2-(4-fluorophenyl)propanoyl]amino}phenyl)[1,2,4]triazolo[1,5-α]pyridin-2-yl][2-methoxy-4-(methylsulfonyl)phenyl]carbamoyl}oxy)methyl 3-methyl-L-valinate hydrochloride] |
| – | 0.0 | 0.0 | COc1cc(S(C)(=O)=O)ccc1N(C(=O)OCOC(=O)[C@@H](NC(=O)[C@@H](N)CCCCN)C(C)C)c1nc2ccc(-c3ccc(NC(=O)[C@H](C)c4ccc(F)cc4)cc3)cn2n1.Cl.Cl [Example 2.1, ({[6-(4-{[(2R)-2-(4-fluorophenyl)propanoyl]amino}phenyl)[1,2,4]triazolo[1,5-α]pyridin-2-yl][2-methoxy-4-(methylsulfonyl)phenyl]carbamoyl}oxy)methyl L-lysyl-L-valinate dihydrochloride] |
| – | 16 | 37 | COc1cc(S(C)(=O)=O)ccc1N(C(=O)OCOC(=O)[C@@H](NC(=O)[C@@H](N)C(C)C)C(C)C)c1nc2ccc(-c3ccc(NC(=O)[C@H](C)c4ccc(F)cc4)cc3)cn2n1 [Example 2.3, ({[6-(4-{[(2R)-2-(4-fluorophenyl)propanoyl]amino}phenyl)[1,2,4]triazolo[1,5-α]pyridin-2-yl][2-methoxy-4-(methylsulfonyl)phenyl]carbamoyl}oxy)methyl L-valyl-L-valinate hydrochloride] |

Second part, the compound before the results:

| SMILES | % Test Compound after 4 h [F(t = 24 h) × 100/F(t = 0 h)] ([1]; hydrochloride) [%] | % Test Compound after 24 h [F(t = 24 h) × 100/F(t = 0 h)] [2] [%] | % Test Compound after 4 h [F(t = 24 h) × 100/F(t = 0 h)] [1] [%] |
| --- | --- | --- | --- |
| COc1cc(S(C)(=O)=O)ccc1N(C(=O)OCOC(=O)C(C)(C)CN)c1nc2ccc(-c3ccc(NC(=O)[C@H](C)c4ccc(F)cc4)cc3)cn2n1.O=C(O)C(F)(F)F [Example 1.8, ({[6-(4-{[(2R)-2-(4-fluorophenyl)propanoyl]amino}phenyl)[1,2,4]triazolo[1,5-α]pyridin-2-yl][2-methoxy-4-(methylsulfonyl)phenyl]carbamoyl}oxy)methyl 3-amino-2,2-dimethylpropanoate trifluoroacetate] | – | 0.0 | 3 |
| CNCCCC(=O)N(c1nc2ccc(-c3ccc(NC(=O)[C@H](C)c4ccc(F)cc4)cc3)cn2n1)c1ccc(S(C)(=O)=O)cc1OC.O=C(O)C(F)(F)F [Example 4.1, N-[6-(4-{[(2R)-2-(4-fluorophenyl)propanoyl]amino}phenyl)[1,2,4]triazolo[1,5-α]pyridin-2-yl]-N-[2-methoxy-4-(methylsulfonyl)phenyl]-4-(methylamino)butanamide trifluoroacetate] | – | 23 | 12 |
| CNCCCC(=O)N(c1nc2ccc(-c3ccc(NC(=O)[C@H](C)c4ccc(F)cc4)cc3)cn2n1)c1ccc(S(C)(=O)=O)cc1OC.Cl [Example 4.1.1, N-[6-(4-{[(2R)-2-(4-fluorophenyl)propanoyl]amino}phenyl)[1,2,4]triazolo[1,5-α]pyridin-2-yl]-N-[2-methoxy-4-(methylsulfonyl)phenyl]-4-(methylamino)butanamide hydrochloride] | – | 21 | 32 |
| C[C@@H](C(=O)Nc1ccc(-c2ccc3nc(N(C(=O)OCOC(=O)[C@@H](N)C(C)(C)C)c4ccc(S(C)(=O)=O)cc4OCC(F)(F)F)nn3c2)cc1)c1ccc(F)cc1.Cl [Example 6.1, ({[6-(4-{[(2R)-2-(4-fluorophenyl)propanoyl]amino}phenyl)[1,2,4]triazolo[1,5-α]pyridin-2-yl][4-(methylsulfonyl)-2-(2,2,2-trifluoroethoxy)phenyl]carbamoyl}oxy)methyl 3-methyl-L-valinate hydrochloride] | – | 0.0 | 4 |
| C[C@@H](C(=O)Nc1ccc(-c2ccc3nc(N(C(=O)OCOC(=O)[C@@H](N)C(C)(C)C)c4ccc(C(=O)N5CC(F)C5)cc4OCC(F)(F)F)nn3c2)cc1)c1ccc(F)cc1.Cl [Example 6.3, [({4-[(3-fluoroazetidin-1-yl)carbonyl]-2-(2,2,2-trifluoroethoxy)phenyl}[6-(4-{[(2R)-2-(4-fluorophenyl)propanoyl]amino}phenyl)[1,2,4]triazolo[1,5-α]pyridin-2-yl]carbamoyl)oxy]methyl 3-methyl-L-valinate hydrochloride] | – | 0.0 | 0.0 |
| CNCCOC(=O)N(c1nc2ccc(-c3ccc(NC(=O)[C@H](C)c4ccc(F)cc4)cc3)cn2n1)c1ccc(S(C)(=O)=O)cc1OC.Cl [Example 7.1, 2-(methylamino)ethyl [6-(4-{[(2R)-2-(4-fluorophenyl)propanoyl]amino}phenyl)[1,2,4]triazolo[1,5-α]pyridin-2-yl][2-methoxy-4-(methylsulfonyl)phenyl]carbamate hydrochloride] | – | 48 | 80 |
